{
  "source": "patent US20020137929A1",
  "about": "“1 - (3-heterocyclylphenyl) isothiourea, -isourea, -guanidine and -amidine herbicidal agents” (Intellectual Property Department, BASF Aktiengesellschaft, priority 1998, published 2002)",
  "key": {"CASOB (Sicklepod)": {"tested_on": "CASOB (Sicklepod)", "assay": "Postemergence herbicidal evaluation", "assay_type": "in vivo, Cassia obtusifolia", "conditions": "postemergence", "procedure,_shortened": "(§1)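 Compound is applied as a foliar spray to seedlings about two weeks old, formulated in equal parts acetone and water with 0.5% TWEEN 20 and delivered at 40 psi to give about 0.0156–0.500 kg per hectare. Injury is rated visually 0–9 after four to five weeks.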"}, "[1]": {"tested_on": "CHEAL (Lambsquarters, Common)", "assay": "Postemergence herbicidal evaluation", "assay_type": "in vivo, Chenopodium album", "conditions": "postemergence", "procedure,_shortened": "as §1"}, "GALAP (Galium)": {"tested_on": "GALAP (Galium)", "assay": "Postemergence herbicidal evaluation", "assay_type": "in vivo, Galium aparine", "conditions": "postemergence", "procedure,_shortened": "as §1"}, "ORYSAT (Rice, Tebonnet) [2]": {"tested_on": "ORYSAT (Rice, Tebonnet)", "assay": "Postemergence herbicidal evaluation", "assay_type": "in vivo, Oryza sativa, (L.) Tebonnet", "conditions": "postemergence", "procedure,_shortened": "as §1"}, "ZEAMX (Corn, Field)": {"tested_on": "ZEAMX (Corn, Field)", "assay": "Postemergence herbicidal evaluation", "assay_type": "in vivo, Zea mays", "conditions": "postemergence", "procedure,_shortened": "as §1"}, "AMBEL (Ragweed, Common)": {"tested_on": "AMBEL (Ragweed, Common)", "assay": "Preemergence herbicidal evaluation", "assay_type": "in vivo, Ambrosia artemisifolia", "conditions": "preemergence, rated 4-5 weeks after treatment, 0-9 scale", "procedure,_shortened": "(§2)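 Preemergence soil application of compound, sprayed in aqueous acetone at rates equivalent to about 0.0156 to 0.500 kg per hectare onto freshly sown cups. Plant response was judged by eye on a 0-9 scale four to five weeks later.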"}, "SETVI (Foxtail, Green)": {"tested_on": "SETVI (Foxtail, Green)", "assay": "Preemergence herbicidal evaluation", "assay_type": "in vivo, Setaria viridis", "conditions": "preemergence, rated 4-5 weeks after treatment, 0-9 scale", "procedure,_shortened": "as §2"}, "[3]": {"tested_on": "GLXMAW (Soybean, Williams)", "assay": "Preemergence herbicidal evaluation", "assay_type": "in vivo, Glycine max, (L.) Merr. cv Williams", "conditions": "preemergence, rated 4-5 weeks after treatment, 0-9 scale", "procedure,_shortened": "as §2"}, "ORYSAT (Rice, Tebonnet) [4]": {"tested_on": "ORYSAT (Rice, Tebonnet)", "assay": "Preemergence herbicidal evaluation", "assay_type": "in vivo, Oryza sativa, (L.) Tebonnet", "conditions": "preemergence, rated 4-5 weeks after treatment, 0-9 scale", "procedure,_shortened": "as §2"}, "CYPSE (Flatsedge) [5]": {"tested_on": "CYPSE (Flatsedge)", "assay": "Preemergence weed control under flooded paddy conditions", "assay_type": "in vivo, Cyperus serotinus", "conditions": "rated 3-4 weeks after treatment", "procedure,_shortened": "(§3)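 Herbicidal effect is scored visually on a 0-9 scale against an untreated control, three to four weeks after compounds are pipetted into the flood water (1.5 to 3 cm deep) over seeds planted in silt loam at 0.5 cm depth. Rates: about 0.0313 to 0.500 kg/ha.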"}, "MOOVA (Monochoria)": {"tested_on": "MOOVA (Monochoria)", "assay": "Preemergence weed control under flooded paddy conditions", "assay_type": "in vivo, Monochoria vaginalis", "conditions": "rated 3-4 weeks after treatment", "procedure,_shortened": "as §3"}, "CYPIR (Rice Flatsedge)": {"tested_on": "CYPIR (Rice Flatsedge)", "assay": "Postemergence weed control under flooded paddy conditions", "assay_type": "in vivo, Cyperus iria", "conditions": "postemergence weeds, rated 3 to 4 weeks after treatment", "procedure,_shortened": "(§4)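 Weeds 3 to 5 cm tall and rice seedlings at the 1.5 to 2.5 leaf stage were flooded, with water held 1.5 to 3 cm above the soil. Compounds in 50/50 v/v aqueous/acetone went into the flood water at about 0.0313 to 0.500 kg/ha. Visual 0-9 ratings versus control were made 3 to 4 weeks later.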"}, "CYPSE (Flatsedge) [6]": {"tested_on": "CYPSE (Flatsedge)", "assay": "Postemergence weed control under flooded paddy conditions", "assay_type": "in vivo, Cyperus serotinus", "conditions": "postemergence weeds, rated 3 to 4 weeks after treatment", "procedure,_shortened": "as §4"}, "[7]": {"tested_on": "SAGPY (Arrowhead (Pygmaea))", "assay": "Postemergence weed control under flooded paddy conditions", "assay_type": "in vivo, Sagittaria pygmaea", "conditions": "postemergence weeds, rated 3 to 4 weeks after treatment", "procedure,_shortened": "as §4"}},
  "data": [
    {"smiles": "CCOC(=O)CN1C(=O)C(CC(=O)NOC)SC1=Nc1cc(-n2c(=O)cc(C(F)(F)F)n(C)c2=O)c(F)cc1Cl", "note": "(centres unmarked) [Compound 83, Ethyl 2-{{2-chloro-5-[3,6-dihydro-3-methyl-2,6-dioxo-4-(trifluoromethyl)-1(2H)-pyrimidinyl]-4-fluorophenyl}imino}-5-[(methoxycarbamoyl)methyl]-4-oxo-3-thiazolidineacetate]", "values": [
      {"measurement": "CASOB herbicidal rating", "setting": "CASOB (Sicklepod); rate 0.0156 kg/ha", "value": 0.0},
      {"measurement": "CASOB herbicidal rating", "setting": "CASOB (Sicklepod); rate 0.0313 kg/ha", "value": 9.0},
      {"measurement": "CASOB herbicidal rating", "setting": "CASOB (Sicklepod); rate 0.0625 kg/ha", "value": 7.0},
      {"measurement": "CASOB herbicidal rating", "setting": "CASOB (Sicklepod); rate 0.1250 kg/ha", "value": 9.0},
      {"measurement": "CHEAL herbicidal rating", "setting": "[1]; rate 0.0156 kg/ha", "value": 5.0},
      {"measurement": "CHEAL herbicidal rating", "setting": "[1]; rate 0.0313 kg/ha", "value": 7.0},
      {"measurement": "CHEAL herbicidal rating", "setting": "[1]; rate 0.0625 kg/ha", "value": 9.0},
      {"measurement": "CHEAL herbicidal rating", "setting": "[1]; rate 0.1250 kg/ha", "value": 9.0},
      {"measurement": "GALAP herbicidal rating", "setting": "GALAP (Galium); rate 0.0156 kg/ha", "value": 0.0},
      {"measurement": "GALAP herbicidal rating", "setting": "GALAP (Galium); rate 0.0313 kg/ha", "value": 0.0},
      {"measurement": "GALAP herbicidal rating", "setting": "GALAP (Galium); rate 0.0625 kg/ha", "value": 3.0},
      {"measurement": "GALAP herbicidal rating", "setting": "GALAP (Galium); rate 0.1250 kg/ha", "value": 5.0},
      {"measurement": "ORYSAT herbicidal rating", "setting": "ORYSAT (Rice, Tebonnet) [2]; rate 0.0156 kg/ha", "value": 1.5},
      {"measurement": "ORYSAT herbicidal rating", "setting": "ORYSAT (Rice, Tebonnet) [2]; rate 0.0313 kg/ha", "value": 2.5},
      {"measurement": "ORYSAT herbicidal rating", "setting": "ORYSAT (Rice, Tebonnet) [2]; rate 0.0625 kg/ha", "value": 3.0},
      {"measurement": "ORYSAT herbicidal rating", "setting": "ORYSAT (Rice, Tebonnet) [2]; rate 0.1250 kg/ha", "value": 3.0},
      {"measurement": "ZEAMX herbicidal rating", "setting": "ZEAMX (Corn, Field); rate 0.0156 kg/ha", "value": 4.5},
      {"measurement": "ZEAMX herbicidal rating", "setting": "ZEAMX (Corn, Field); rate 0.0313 kg/ha", "value": 7.5},
      {"measurement": "ZEAMX herbicidal rating", "setting": "ZEAMX (Corn, Field); rate 0.0625 kg/ha", "value": 7.5},
      {"measurement": "ZEAMX herbicidal rating", "setting": "ZEAMX (Corn, Field); rate 0.1250 kg/ha", "value": 7.5},
      {"measurement": "AMBEL rating", "setting": "AMBEL (Ragweed, Common); 0.0156 kg/ha", "value": 0.0},
      {"measurement": "AMBEL rating", "setting": "AMBEL (Ragweed, Common); 0.0313 kg/ha", "value": 0.0},
      {"measurement": "AMBEL rating", "setting": "AMBEL (Ragweed, Common); 0.0625 kg/ha", "value": 0.0},
      {"measurement": "AMBEL rating", "setting": "AMBEL (Ragweed, Common); 0.1250 kg/ha", "value": 9.0},
      {"measurement": "AMBEL rating", "setting": "AMBEL (Ragweed, Common); 0.2500 kg/ha", "value": 9.0},
      {"measurement": "AMBEL rating", "setting": "AMBEL (Ragweed, Common); 0.5000 kg/ha", "value": 9.0},
      {"measurement": "SETVI rating", "setting": "SETVI (Foxtail, Green); 0.0156 kg/ha", "value": 0.0},
      {"measurement": "SETVI rating", "setting": "SETVI (Foxtail, Green); 0.0313 kg/ha", "value": 0.0},
      {"measurement": "SETVI rating", "setting": "SETVI (Foxtail, Green); 0.0625 kg/ha", "value": 0.0},
      {"measurement": "SETVI rating", "setting": "SETVI (Foxtail, Green); 0.1250 kg/ha", "value": 2.0},
      {"measurement": "SETVI rating", "setting": "SETVI (Foxtail, Green); 0.2500 kg/ha", "value": 9.0},
      {"measurement": "SETVI rating", "setting": "SETVI (Foxtail, Green); 0.5000 kg/ha", "value": 9.0},
      {"measurement": "GLXMAW rating", "setting": "[3]; 0.0156 kg/ha", "value": 0.0},
      {"measurement": "GLXMAW rating", "setting": "[3]; 0.0313 kg/ha", "value": 0.0},
      {"measurement": "GLXMAW rating", "setting": "[3]; 0.0625 kg/ha", "value": 0.0},
      {"measurement": "GLXMAW rating", "setting": "[3]; 0.1250 kg/ha", "value": 0.0},
      {"measurement": "GLXMAW rating", "setting": "[3]; 0.2500 kg/ha", "value": 5.0},
      {"measurement": "GLXMAW rating", "setting": "[3]; 0.5000 kg/ha", "value": 7.0},
      {"measurement": "ORYSAT rating", "setting": "ORYSAT (Rice, Tebonnet) [4]; 0.0156 kg/ha", "value": 0.0},
      {"measurement": "ORYSAT rating", "setting": "ORYSAT (Rice, Tebonnet) [4]; 0.0313 kg/ha", "value": 0.0},
      {"measurement": "ORYSAT rating", "setting": "ORYSAT (Rice, Tebonnet) [4]; 0.0625 kg/ha", "value": 0.0},
      {"measurement": "ORYSAT rating", "setting": "ORYSAT (Rice, Tebonnet) [4]; 0.1250 kg/ha", "value": 0.0},
      {"measurement": "ORYSAT rating", "setting": "ORYSAT (Rice, Tebonnet) [4]; 0.2500 kg/ha", "value": 0.0},
      {"measurement": "ORYSAT rating", "setting": "ORYSAT (Rice, Tebonnet) [4]; 0.5000 kg/ha", "value": 5.0},
      {"measurement": "CYPSE herbicidal effect rating", "setting": "CYPSE (Flatsedge) [5]; 0.0313 kg/ha", "value": 0.0},
      {"measurement": "CYPSE herbicidal effect rating", "setting": "CYPSE (Flatsedge) [5]; 0.1250 kg/ha", "value": 3.0},
      {"measurement": "CYPSE herbicidal effect rating", "setting": "CYPSE (Flatsedge) [5]; 0.2500 kg/ha", "value": 5.0},
      {"measurement": "MOOVA herbicidal effect rating", "setting": "MOOVA (Monochoria); 0.0313 kg/ha", "value": 9.0},
      {"measurement": "MOOVA herbicidal effect rating", "setting": "MOOVA (Monochoria); 0.0625 kg/ha", "value": 9.0},
      {"measurement": "MOOVA herbicidal effect rating", "setting": "MOOVA (Monochoria); 0.1250 kg/ha", "value": 9.0},
      {"measurement": "MOOVA herbicidal effect rating", "setting": "MOOVA (Monochoria); 0.2500 kg/ha", "value": 9.0},
      {"measurement": "Herbicidal rating CYPIR", "setting": "CYPIR (Rice Flatsedge); Rate 0.0313 kg/ha", "value": 5.0},
      {"measurement": "Herbicidal rating CYPIR", "setting": "CYPIR (Rice Flatsedge); Rate 0.0625 kg/ha", "value": 6.0},
      {"measurement": "Herbicidal rating CYPIR", "setting": "CYPIR (Rice Flatsedge); Rate 0.1250 kg/ha", "value": 6.0},
      {"measurement": "Herbicidal rating CYPIR", "setting": "CYPIR (Rice Flatsedge); Rate 0.2500 kg/ha", "value": 7.0},
      {"measurement": "Herbicidal rating CYPSE", "setting": "CYPSE (Flatsedge) [6]; Rate 0.0313 kg/ha", "value": 0.0},
      {"measurement": "Herbicidal rating CYPSE", "setting": "CYPSE (Flatsedge) [6]; Rate 0.1250 kg/ha", "value": 3.0},
      {"measurement": "Herbicidal rating CYPSE", "setting": "CYPSE (Flatsedge) [6]; Rate 0.2500 kg/ha", "value": 5.0},
      {"measurement": "Herbicidal rating SAGPY", "setting": "[7]; Rate 0.0313 kg/ha", "value": 7.0},
      {"measurement": "Herbicidal rating SAGPY", "setting": "[7]; Rate 0.0625 kg/ha", "value": 7.0},
      {"measurement": "Herbicidal rating SAGPY", "setting": "[7]; Rate 0.1250 kg/ha", "value": 7.0},
      {"measurement": "Herbicidal rating SAGPY", "setting": "[7]; Rate 0.2500 kg/ha", "value": 9.0}
    ]}
  ]
}
